Data on 25 molecules can be found in US20260015346A1, “GLUTATHIONE PEROXIDASE 4 (GPX4) INHIBITORS FOR THE TREATMENT OF CANCER” (Ferro Therapeutics, Inc., priority 2022, published 2026).

For experiment [1], the system named is A431 (epidermoid carcinoma). Kind of experiment: Cell viability (Alamar Blue), 24-hour 2D viability, A431 cells. The class given is cell-based, human. On the procedure:
(§1) A cell viability assay is performed to assess the potency of the compounds in human cancer cell lines 786-O (renal cell carcinoma), SJSA-1 (osteosarcoma), and/or A431 (epidermoid carcinoma). Additional cell lines, such as pancreatic cancer cell lines (e.g., Panc 02.13, BxPC-3, Panc 12, Panc 02.03, Panc 6.03, PSN-1, HPAC, and Capan-1), prostate cancer cell lines (e.g., PC-3, DU145, 22Rv1, NCI-H660, BPH1, LNCaP, BM-1604, and MDA PCa 2b), etc., can be tested in a similar method.
(§2) Cells (SJSA-1, 786-0 and/or A431) are seeded (5000 cells/100 μL/well) in 96-well tissue culture plate and incubated at 37° C./5% CO2 for 16-24 hours. The cells are then treated with compounds (25 μL of 5×). The compound concentrations are 10-0.0005 μM prepared in 3-fold serial dilutions with final DMSO concentration of 1%. The plates are then incubated for 24 h at 37° C./5% CO2 in a moist environment. Then Alamar Blue™ reagent (final concentration 1×-12.5 μL) is added to each well and incubated for 1.5 hours at 37° C./5% CO2. The plates are read on fluorescence reader at 540 nanometer (nm) excitation and 590 nm emission wavelengths. The IC50 values are subsequently determined using a sigmoidal dose-response curve (variable slope) in GraphPad Prism® 5 software.
For orientation: Alamar Blue is a resazurin reagent that responds to reducing activity.

The subject of experiment [2] is 786-O (renal cell carcinoma). Kind of experiment: Cell viability (Alamar Blue), 24-hour 2D viability, 786-O cells. The class given is cell-based, human. The conditions noted are these: 786-0 cells, 10% FBS, 24-hour 2D viability, read-out: EC50 (nM) 786-0 10% FBS. On the procedure: as §1, §2

Where two headings read alike, the source gives them in different places.

By EC50 is commonly meant the concentration that produces a half-maximal response. Turning to `C#Cc1csc(C(=O)N2[C@@H](CCCC)Cc3cc(OC)ccc3[C@@H]2c2ccc(NC34CC5CC(CC(C5)C3)C4)cc2)n1` [Compound 24a], the EC50 in experiment [1] (Homo sapiens, A-431, 10% FBS) was over 10000 nM; in experiment [2] (Homo sapiens, 786-0, 24 h), over 10000 nM.
Consider `C#Cc1nc(C(=O)N2[C@@H](CCCC)Cc3cc(OC)ccc3[C@@H]2c2ccc(S(=O)(=O)N(C)C3CCC3)cc2)cs1` [Compound 21a], for which the EC50 is over 10000 nM in experiment [1] (Homo sapiens, A-431, 10% FBS) and 91.5 nM in experiment [2] (Homo sapiens, 786-0, 24 h).
`C#Cc1nc(C(=O)N2[C@@H](CCCC)Cc3cc(OC[C@H]4CCCN4C)ccc3[C@@H]2c2ccc(NC34CC5CC(CC(C5)C3)C4)cc2)cs1` [Compound 13a]: the EC50 in experiment [1] (Homo sapiens, A-431, 10% FBS) was determined as 5120 nM; in experiment [2] (Homo sapiens, 786-0, 24 h) it was 68.3 nM.
Turning to `C#Cc1nccc(C(=O)N2[C@@H](CCCC)Cc3cc(OC)ccc3[C@@H]2c2ccc(NC34CC5CC(CC(C5)C3)C4)cc2)n1` [Compound 28a], the EC50 was over 10000 nM in experiment [1] (Homo sapiens, A-431, 10% FBS) and 44.3 nM in experiment [2] (Homo sapiens, 786-0, 24 h).
As for `C#Cc1nc(C(=O)N2C(c3ccc4ncccc4c3)c3ccc(OC)cc3C[C@@H]2CCCC)cs1` (stereo partly shown) [Compound 3a], the EC50 was over 10000 nM in experiment [1] (Homo sapiens, A-431, 10% FBS) and 70.2 nM in experiment [2] (Homo sapiens, 786-0, 24 h).
For `C#Cc1nc(C(=O)N2[C@@H](CCCC)Cc3c([nH]c4ccc(CCCO)cc34)[C@@H]2c2ccc(NC34CC5CC(CC(C5)C3)C4)cc2)cs1` [Compound 7a] the same measures were 8410 nM and 16 nM.
As for `C#Cc1nc(C(=O)N2C(c3ccc(F)cn3)c3[nH]c4ccccc4c3C[C@@H]2c2nc(C)no2)cs1` (single isomer, unassigned) [Compound 10aB], the figures for the EC50 in experiment [1] (10% FBS) and in experiment [2] were over 10000 nM and 380 nM, respectively.
Regarding `C#Cc1nc(C(=O)N2[C@@H](CCCC)Cc3cc(OC)ccc3[C@@H]2c2ccc(NC(=O)C3CCC3)cc2)cs1` [Compound 17a], in experiment [2] (Homo sapiens, 786-0, 24 h), the EC50 was found to be 43 nM.
Take `C#Cc1nc(C(=O)N2[C@@H](CCCC)Cc3cc(OC[C@@H]4CCCN4)ccc3[C@@H]2c2ccc(NC34CC5CC(CC(C5)C3)C4)cc2)cs1` [Compound 5a]: the EC50 in experiment [1] (Homo sapiens, A-431, 10% FBS) came to 3980 nM; in experiment [2] (Homo sapiens, 786-0, 24 h), 48.9 nM.
Taken in the same sequence, the figures for `C#Cc1nc(C(=O)N2[C@@H](CCCC)Cc3c([nH]c4ccccc34)[C@@H]2c2ccc(NC34CC5CC(CC(C5)C3)C4)cc2)cs1` [Compound 11a] were over 10000 nM and 78.6 nM.
Consider `C#Cc1nc(C(=O)N2[C@@H](CCCC)Cc3cc(OC)ccc3[C@@H]2c2ccc(C(=O)NC3CCC3)nc2)cs1` [Compound 19a], for which the EC50 in experiment [2] (Homo sapiens, 786-0, 24 h) is 40 nM.
As to `C#Cc1nc(C(=O)N2[C@@H](CCCC)Cc3c([nH]c4ccccc34)[C@@H]2c2ccc(NC3CCC3)cc2)cs1` [Compound 4a, ((1S,3S)-3-butyl-1-(4-(cyclobutylamino)phenyl)-1,3,4,9-tetrahydro-2H-pyrido[3,4-b]indol-2-yl)(2-ethynylthiazol-4-yl)methanone], the EC50 was over 10000 nM in experiment [1] (Homo sapiens, A-431, 10% FBS) and 43.3 nM in experiment [2] (Homo sapiens, 786-0, 24 h).
Taken in the same sequence, the figures for `C#Cc1nc(C(=O)N2[C@@H](CCCC)Cc3cc(OC)ccc3[C@@H]2c2ccc(C#N)cc2)cs1` [Compound 2a, 4-((1S,3S)-3-butyl-2-(2-ethynylthiazole-4-carbonyl)-6-methoxy-1,2,3,4-tetrahydroisoquinolin-1-yl)benzonitrile] were over 10000 nM and 29.9 nM.
Consider `C#Cc1nc(C(=O)N2[C@@H](c3ccc(F)cc3)c3[nH]c4ccccc4c3C[C@@H]2c2nc(C)no2)cs1` [Compound 20a], for which the EC50 was over 10000 nM in experiment [1] (Homo sapiens, A-431, 10% FBS) and 117 nM in experiment [2] (Homo sapiens, 786-0, 24 h).
On to `C#Cc1nc(C(=O)N2[C@@H](CCCC)Cc3cc(OC)ccc3[C@@H]2c2ccc(C(=O)NC3CCC3)cn2)cs1` [Compound 18a], for which, in experiment [2] (Homo sapiens, 786-0, 24 h), the EC50 was found to be 57.1 nM.
On the same count and under the same terms, with `C#Cc1nc(C(=O)N2[C@@H](CCCC)Cc3c([nH]c4ccccc34)C23CNC3)cs1` [Compound 12a] the figure was 7.6 nM.
On to `C#Cc1ncc(C(=O)N2[C@@H](CCCC)Cc3cc(OC)ccc3[C@@H]2c2ccc(NC34CC5CC(CC(C5)C3)C4)cc2)s1` [Compound 23a], for which the EC50 is 3720 nM in experiment [1] (Homo sapiens, A-431, 10% FBS) and 21.1 nM in experiment [2] (Homo sapiens, 786-0, 24 h).
For the molecule `C#Cc1nc(C(=O)N2[C@@H](CCCC)Cc3cc(OC)ccc3[C@@H]2c2ccc(NC34CC5CC(CC(C5)C3)C4)cc2)co1` [Compound 26a], the EC50 in experiment [1] (Homo sapiens, A-431, 10% FBS) is over 10000 nM; in experiment [2] (Homo sapiens, 786-0, 24 h), 41.3 nM.
`C#Cc1nc(C(=O)N2[C@@H](CCCC)Cc3cc(OC)ccc3[C@@H]2c2ccc(S(=O)(=O)NC3CCC3)nc2)cs1` [Compound 15a]: the EC50 in experiment [1] (Homo sapiens, A-431, 10% FBS) was over 10000 nM; in experiment [2] (Homo sapiens, 786-0, 24 h) it was 73.1 nM.
For the molecule `C#Cc1nc(C(=O)N2[C@@H](CCCC)Cc3cc(NC(=O)[C@H]4CCCN4C)ccc3[C@@H]2c2ccc(NC34CC5CC(CC(C5)C3)C4)cc2)cs1` [Compound 8a], the EC50 is over 10000 nM in experiment [1] (Homo sapiens, A-431, 10% FBS) and 386 nM in experiment [2] (Homo sapiens, 786-0, 24 h).
Regarding `C#Cc1nc(C(=O)N2[C@@H](CCCC)Cc3cc(OC)ccc3[C@@H]2c2ccc(C(=O)NC3CCC3)cc2)cs1` [Compound 16a], the EC50 is over 10000 nM in experiment [1] (Homo sapiens, A-431, 10% FBS) and 85.4 nM in experiment [2] (Homo sapiens, 786-0, 24 h).
For the molecule `C#Cc1nc(C(=O)N2C(c3ccc(F)cn3)c3[nH]c4ccccc4c3C[C@@H]2c2nc(C)no2)cs1` (single isomer, unassigned) [Compound 10aA], the EC50 is over 10000 nM in experiment [1] (Homo sapiens, A-431, 10% FBS) and 118 nM in experiment [2].
`C#Cc1nc(C(=O)N2[C@@H](CCCC)Cc3cc(OC)ccc3[C@@H]2c2ccc(NC34CC5CC(CC(C5)C3)C4)cc2)cn1C` [Compound 27a]: the EC50 in experiment [1] (Homo sapiens, A-431, 10% FBS) was 7790 nM; in experiment [2] (Homo sapiens, 786-0, 24 h) it was over 10000 nM.
Regarding `C#Cc1nc(C(=O)N2[C@@H](CCCC)Cc3c([nH]c4ccccc34)C23CCN(C)CC3)cs1` [Compound 22a], the EC50 in experiment [1] (Homo sapiens, A-431, 10% FBS) was 3270 nM; in experiment [2] (Homo sapiens, 786-0, 24 h), 20.6 nM.
Taken in the same sequence, the figures for `C#Cc1nc(C(=O)N2C(c3ccc(S(=O)(=O)NC4CCC4)cc3)c3ccc(OC)cc3C[C@@H]2CCCC)cs1` (stereo partly shown) [Compound 9a] were 5160 nM and 60 nM.
